From publication PMC7105311, “Structure and function of Bs164 β-mannosidase from Bacteroides salyersiae the founding member of glycoside hydrolase family GH164” (The Journal of Biological Chemistry, 2019)
Like-named read-outs stand apart in the source and are kept apart here.

Target: T1, Bs164 (Bacteroides salyersiae, UniProt I9SUA3)
T1 construct: gene HMPREF1071_03408; tag cut by 3C protease for kinetics, His6-tagged for crystals
T1 sequence (I9SUA3 22-673): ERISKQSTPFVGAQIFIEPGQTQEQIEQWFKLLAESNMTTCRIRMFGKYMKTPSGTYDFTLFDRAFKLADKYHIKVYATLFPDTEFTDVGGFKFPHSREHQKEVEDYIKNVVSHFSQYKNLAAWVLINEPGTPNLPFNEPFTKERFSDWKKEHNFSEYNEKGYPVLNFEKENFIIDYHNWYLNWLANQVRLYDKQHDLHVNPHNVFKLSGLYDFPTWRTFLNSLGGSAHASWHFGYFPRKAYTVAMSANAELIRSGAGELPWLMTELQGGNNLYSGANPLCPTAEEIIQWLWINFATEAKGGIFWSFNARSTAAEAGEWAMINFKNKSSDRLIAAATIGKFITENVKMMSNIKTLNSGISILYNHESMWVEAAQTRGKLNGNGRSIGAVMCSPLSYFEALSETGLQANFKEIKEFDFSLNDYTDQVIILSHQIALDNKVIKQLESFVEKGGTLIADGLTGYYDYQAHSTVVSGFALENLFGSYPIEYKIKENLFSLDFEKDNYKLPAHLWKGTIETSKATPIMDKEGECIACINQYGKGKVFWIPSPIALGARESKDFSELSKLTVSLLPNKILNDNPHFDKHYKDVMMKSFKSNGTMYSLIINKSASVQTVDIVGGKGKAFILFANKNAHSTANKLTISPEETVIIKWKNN
Experiment: inhibition of pNP β-Man hydrolysis, absorbance, competitive model fit
Format: biochemical
From the text: inhibition of pNP β-Man hydrolysis, absorbance, competitive model fit on Bs164 | Mannoimidazole and noeuromycin act as competitive inhibitors of Bs164 with inhibition constants (Ki)

Structure (SMILES): OC[C@@H]1[C@@H](O)[C@H](O)[C@H](O)c2nccn21 [mannoimidazole]
- Ki: 470 ± 60 µM

Structure (SMILES): OC[C@H]1CN[C@@H](O)[C@@H](O)[C@@H]1O [noeuromycin]
- Ki (competitive, substrate pNP β-Man, 80 mM MES pH 5.5, 160 mM NaCl, 25 °C, crystal structure 2.06 Å, -1 subsite): 0.34 ± 0.04 µM
